Experimental data reported in article PMC10107299, “Neutralizing the Impact of the Virulence Factor LecA from Pseudomonas aeruginosa on Human Cells with New Glycomimetic Inhibitors” (Angewandte Chemie (International Ed. in English), 2023).

Key:
[1] = test system: plasma protein; assay: Plasma protein binding (rapid equilibrium device), murine plasma; assay type: in vitro ADME, mouse; conditions: 1 µM
Experimental: mixer (Eppendorf). Acetonitrile and caffeine were dispensed using a Mantis Formulatrix. Then samples were centrifuged for 20 min at 2.270 x g at 4 °C and the supernatants were transferred to 96-well Greiner V-bottom plates. Peak areas of each compound and of the internal standard were analyzed using the MultiQuant 3.0 software (AB Sciex). Peak areas of the respective compound were normalized to the internal standard peak area and to the respective peak areas at time point 0 min: (C/D)/(A/B) with A: peak area of the compound at time point 0 min, B: peak area of the internal standard at time point 0 min, C: peak area of the compound at the respective time point, D: peak area of the internal standard at the respective time point. […]
Assessment of plasma protein binding
Plasma protein binding was assessed using the rapid equilibrium device (RED) system from ThermoFisher. Compounds were dissolved in DMSO. […]
high plasma protein binding. Compounds were diluted in murine plasma (from CD-1 mice, pooled) or in human plasma (human donors, both genders, pooled) to a final concentration of 1 µM. Dialysis buffer and plasma samples were added to the respective chambers according the manufacturer’s protocol. The RED plate was sealed with a tape and incubated at 37 °C for 2 hours at 800 rpm on an Eppendorf MixMate vortex-mixer. Then samples were withdrawn from the respective chambers. To 25 µL of each dialysis sample, 25 µL of plasma and to 25 µL of plasma sample, 25 µL of dialysis buffer was added. Then 150 µL ice-cold extraction solvent (ACN/H2O (90:10) containing 12.5 ng/mL caffeine as internal standard) was added. Samples were incubated for 30 min on ice. Then samples were centrifuged at 4 °C at 2270 x g for 10 min.
Supernatants were transferred to Greiner V-bottom 96-well plates and sealed with a tape. The […]
percentage of bound compound was calculated as follows:
(1) % free = (concentration buffer chamber / concentration plasma chamber) *100 […]
Samples were analyzed using an Agilent 1290 Infinity II HPLC system coupled to an AB Sciex QTrap 6500plus mass spectrometer. LC conditions were as follows: column: Agilent […]
Zorbax Eclipse Plus C18, 50x2.1 mm, 1.8 µm; temperature: 30 °C; injection volume: 5 µL per […]
sample; flow rate: 700 µL/min. Samples were run under acidic and buffered conditions.
Solvents for acidic conditions: A1: water + 0.1% formic acid; solvent B1: 95% acetonitrile/5% […]
H2O + 0.1% formic acid; solvents for buffered conditions: A2: 95% water + 5% acetonitrile + […]
5 mM ammonium acetate + 40 µL/L acetic acid; B2: 95% acetonitrile + 5% water + 5 mM […]
ammonium acetate + 40 µL/L acetic acid. The same gradient was applied for acidic and […]
buffered conditions: 99% A at 0 min, 99% A until 1 min, 99% - 0% A from 1 min to 4.0 min, […]
0% A until 5.0 min. Mass transitions for controls and compounds are depicted in the following […]

[2] = In vivo pharmacokinetic study in mice; parameters: species or system CD-1 mice; conditions: 1 mg kg^−1 i.v.; for Cmax: male, CD-1, mouse, urine, iv
Experimental: Encouraged by these promising in vitro results, an in vivo pharmacokinetic study was conducted for H2 and L2 in mice (1 mg kg^−1, i. v.) and in rats for L2 (10 mg kg^−1, i. v.). Compound concentrations were monitored in plasma and urine (Figure 6). H2 and L2 were cleared from mouse plasma within 1 h. Both compounds rapidly reached high concentrations in urine, several orders of magnitude above their respective in vitro LecA binding affinity. In fact, concentrations above the K ds were detected over the entire observation period of 5 h. […] In rats, higher amounts of L2 were detected both in plasma and urine, not solely corresponding to the 10‐fold increased dose. […] Importantly, high levels of L2 were present in rat urine even 24 h after administration.
Pharmacokinetic studies in mice
For pharmacokinetic experiments, outbred male CD-1 mice (Charles River, Germany), 4-weeks-old, were used. The animal studies were conducted in accordance with the recommendations of the European Community (Directive 86/609/EEC, 24 November 1986). All animal procedures were performed in strict accordance with the German regulations of the Society for Laboratory Animal Science (GV-SOLAS) and the European Health Law of the Federation of Laboratory Animal Science Associations (FELASA). Animals were excluded from further analysis if sacrifice was necessary according to the humane endpoints established by the ethical board. All experiments were approved by the ethical board of the Niedersächsisches Landesamt für Verbraucherschutz und Lebensmittelsicherheit, Oldenburg, Germany (33.19-42502-04-20/3522). L2 and H2 were dissolved in water and administered in individual PK studies (N = 2 per study) at 1 mg/kg intravenously. Up to 25 µl blood was collected from the lateral tail vein and time points t = 0.25, 0.5, 1 and 3 hours. At t = 5 hours animals were euthanized to collect blood. At time points t = 0.25, 0.5, 1, 3 and 5 hours spontaneous urine was collected as well. Whole blood was collected into Eppendorf tubes coated with 0.5 M EDTA and immediately spun down at […]
15870 x g for 10 min at 4 °C. […]
Rats were provided with a catheter in the jugular vein 2 - 3 days prior to drug administration and blood sampling. According to national animal welfare guidelines, rats were treated once with Carprofen (5 mg/kg) directly after catheterization. Catheter was rinsed daily with K3EDTA. […]
First, a calibration curve was prepared by spiking different concentrations of L2 and H2 into mouse plasma, rat plasma or mouse urine (matrix for mouse and rat PK samples) from CD-1 mice. […] Samples from the mouse PK study with H2 in mice and from the rat PK study with L2 were analyzed via HPLC-MS/MS as described in the HPLC-MS analysis section above. PK samples from the mouse PK study with L2 were analyzed using an Agilent 1290 […]

Structure (SMILES) | PPB Mouse [1] | Time to clearance from mouse plasma [2] | Cmax [2]
O=C(CCc1ccc(O[C@@H]2O[C@H](CO)[C@H](O)[C@H](O)[C@H]2O)cc1)Nc1ccc(OCCOc2ccc(NC(=O)CCc3ccc(O[C@@H]4O[C@H](CO)[C@H](O)[C@H](O)[C@H]4O)cc3)cn2)nc1 [Compound H2] | 97.6 ± 2.1% | ≤ 1 h | 63 µM
O=C(CCc1ccc(O[C@@H]2O[C@H](CO)[C@H](O)[C@H](O)[C@H]2O)cc1)Nc1ccc(CCc2ccc(NC(=O)CCc3ccc(O[C@@H]4O[C@H](CO)[C@H](O)[C@H](O)[C@H]4O)cc3)cc2S(=O)(=O)O)c(S(=O)(=O)O)c1 [Compound L2] | 14.5 ± 6.8% | ≤ 1 h | 13.4 µM
